{"source": "patent US7384911B2", "about": "“Peptides having antimicrobial properties and compositions containing them, notably for the preservation of foodstuffs” (priority 2002, dated 2008)", "key": {"[1]": {"system": "Pseudomonas aeruginosa ATCC 82118", "format": "cell-based", "conditions": "interval [a]-[b], tested spheniscin-2 0.2-100 μM, MSI-94 0.2-10 μM", "experimental": "(§1) The bacteria to be tested were suspended in a suitable nutritive medium of the “poor broth” type corresponding to a solution of bactotryptone at 10 g/l with the addition of NaCl 5 g/l in ultrapure water.\n(§2) Antimicrobial activities were detected by a growth inhibition test in microtitration plates (Hétru and Bulet, 1997). One deposited […] of each fraction collected in mictrotitration plates in the presence of 90 μl of culture medium containing the microorganisms (at a final concentration equivalent to 1 mDO at 600 nm).\n(§3) For the bacteria and the yeast, incubation was performed at 30° C. for 12-24 h under agitation. The growth of the microorganisms was measured by monitoring the absorbance at 600 nm by means of a spectrophotometer reader of microtitration plates.\n(§4) The antimicrobial activities expressed in minimal inhibitory concentration (MIC) of spheniscin 2 (concentrations comprised between 0.2 μM and 100 μM) were determined against bacteria, yeasts and fungi using a growth inhibition test in liquid medium in microtitration plates (for the detailed protocol see example 2.4 as well as Hétru and Bulet, 1997).\n(§5) The minimal growth inhibitory concentration (MIC) corresponds to the interval [a]-[b] in which [a] is the strongest concentration tested for which the microorganism grows and [b] is the weakest concentration tested starting at which there is 100% inhibition of growth of the microorganism (Casteels and Tempst, 1994). The control peptides were MSI-94 (a peptide of the mangainin family stemming from the skin of the batrachian Xenopus laevis and presenting a broad spectrum of antimicrobial activity; Maloy and Kari, 1995) for testing against the bacteria and yeasts; and thanatin (an antifungal peptide stemming from the insect Podisus maculiventris; Fehlbaum et al., 1996) for testing against the filamentous fungi."}, "Nocardia asteroides": {"system": "Nocardia asteroides", "format": "cell-based", "conditions": "interval [a]-[b], tested spheniscin-2 0.2-100 μM, MSI-94 0.2-10 μM", "experimental": "as §1, §2, §3, §4, §5"}, "C. tropicalis": {"system": "C. tropicalis", "format": "cell-based", "conditions": "interval [a]-[b], tested spheniscin-2 0.2-100 μM, MSI-94 0.2-10 μM", "experimental": "(§6) The yeast strain C. albicans to be tested was incubated in a suitable culture medium of the “Sabouraud” type.\nas §2, §3, §4\n(§7) The minimal growth inhibitory concentration (MIC) corresponds to the interval [a]-[b] in which [a] is the strongest concentration tested for which the microorganism grows and [b] is the weakest concentration tested starting at which there is 100% inhibition of growth of the microorganism (Casteels and Tempst, 1994). […]"}, "Candida glabrata": {"system": "Candida glabrata", "format": "cell-based", "conditions": "tested spheniscin-2 0.2-100 μM, MSI-94 0.2-10 μM, ND = activity not detected in range tested", "experimental": "as §6, §2, §3, §4, §7"}, "B. cereus ATCC 11778 [2]": {"system": "B. cereus ATCC 11778", "assay": "Bactericidal or bacteriostatic effect, spreading on Petri dishes and counting colonies", "format": "cell-based, Bacillus cereus", "conditions": "colonies counted after 24 h of incubation, Yes/No", "experimental": "(§8) The bactericidal or bacteriostatic effect of the peptide was determined by spreading on Petri dishes and counting the colonies present after 24 h of incubation."}, "E. coli 1106 [3]": {"system": "E. coli 1106", "assay": "Bactericidal or bacteriostatic effect, spreading on Petri dishes and counting colonies", "format": "cell-based, Escherichia coli", "conditions": "colonies counted after 24 h of incubation, Yes/No", "experimental": "as §8"}, "S. saprophyticus [4]": {"system": "S. saprophyticus", "format": "cell-based, Staphylococcus saprophyticus", "conditions": "interval [a]-[b], tested spheniscin-2 0.2-100 μM, MSI-94 0.2-10 μM", "experimental": "as §1, §2, §3\nas §4, with “1997). […]” for “1997).”"}, "Aspergillus fumigatus [5]": {"system": "Aspergillus fumigatus", "format": "cell-based", "conditions": "interval [a]-[b], tested spheniscin-2 0.2-100 μM, thanatin 0.4-41.1 μM", "experimental": "(§9) The spores of the fungus N. crassa to be tested were suspended in a suitable culture medium of the “potato infusion—glucose” type. Preference was given to the use of 12 g of potato dextrose broth medium (1/2 PDB, Difco) per 1 liter of demineralized water. Two antibiotics were added to the culture medium: cefotaxime (final concentration at 100 μg/ml) and tetracycline (final concentration at 10 μg/ml).\nas §2\n(§10) For the filamentous fungi, the incubation was performed at 37° C. in a humid atmosphere for 48 hours.\nas §4, with “1997). […]” for “1997).”"}, "Neurospora crassa": {"system": "Neurospora crassa", "format": "cell-based", "conditions": "interval [a]-[b], tested spheniscin-2 0.2-100 μM, thanatin 0.4-41.1 μM", "experimental": "as §9, §2, §10\nas §4, with “1997). […]” for “1997).”"}, "S. saprophyticus [6]": {"system": "S. saprophyticus", "assay": "Bactericidal or bacteriostatic effect, spreading on Petri dishes and counting colonies", "format": "cell-based, Staphylococcus saprophyticus", "conditions": "colonies counted after 24 h of incubation, Yes/No", "experimental": "as §8"}, "[7]": {"system": "V. anguillarum ATCC 19264", "assay": "MIC, growth inhibition test in liquid medium in microtitration plates", "format": "cell-based", "conditions": "interval [a]-[b], tested spheniscin-2 0.2-100 μM", "experimental": "as §1, §2, §3\nas §4, with “1997). […]” for “1997).”"}, "[8]": {"system": "Vibrio metshnikovii NCTC 8483", "assay": "MIC, growth inhibition test in liquid medium in microtitration plates", "format": "cell-based", "conditions": "interval [a]-[b], tested spheniscin-2 0.2-100 μM", "experimental": "as §1, §2, §3\nas §4, with “1997). […]” for “1997).”"}, "Escherichia coli 1106": {"system": "Escherichia coli 1106", "format": "cell-based", "experimental": "(§11) Strains of microorganisms capable of growing at such pH values were selected in advance: these were Pseudomonas aeruginosa and Escherichia coli 1106 (Gram-negative bacteria). The tests of antimicrobial activity were performed in liquid medium in microtitration plates (for the detailed protocol see example 2.4 as well as Hétru and Bulet, 1997). The pH of the liquid medium used was adjusted with hydrochloric acid for each test.\n(§12) Two strains of Gram-negative bacteria (Pseudomonas aeruginosa and Escherichia coli 1106) capable of growing in the range of pH values to be tested were selected. The range of pH values tested corresponded to the pH variations observed in the well preserved stomach content of the incubating king penguin (Thouzeau et al., 2003)."}, "Pseudomonas aeruginosa": {"system": "Pseudomonas aeruginosa", "format": "cell-based", "experimental": "as §11, §12"}, "Aspergillus fumigatus [9]": {"system": "Aspergillus fumigatus", "assay": "Effect on growth of Aspergillus fumigatus, observation with electronic microscope", "format": "cell-based", "conditions": "incubation with 6 μM of spheniscin-2", "description": "(FIG. 9A) Control growth: the aspergillar heads terminated by the spores are clearly visible (X 400). […] The effect of spheniscin-2 on A. fumigatus is consequently not of the direct fungicidal type on the spores but is manifested by a halt of growth by inhibition of the reproduction of the fungus because there is no longer formation of aspergillar heads, structures implicated in the reproduction/proliferation process of this fungus."}, "E. coli 1106 [10]": {"system": "E. coli 1106", "format": "cell-based, Escherichia coli", "conditions": "interval [a]-[b], tested spheniscin-2 0.2-100 μM, MSI-94 0.2-10 μM", "experimental": "as §1, §2, §3\nas §4, with “1997). […]” for “1997).”"}, "B. cereus ATCC 11778 [11]": {"system": "B. cereus ATCC 11778", "format": "cell-based, Bacillus cereus", "conditions": "interval [a]-[b], tested spheniscin-2 0.2-100 μM, MSI-94 0.2-10 μM", "experimental": "as §1, §2, §3\nas §4, with “1997). […]” for “1997).”"}, "C. albicans IHEM 8060": {"system": "C. albicans IHEM 8060", "format": "cell-based, Candida albicans", "conditions": "interval [a]-[b], tested spheniscin-2 0.2-100 μM, MSI-94 0.2-10 μM", "experimental": "as §6, §2, §3, §4, §7"}}, "note": "Where two headings read alike, the source gives them in different places. Residues, ends and D or L forms follow the SMILES beside them."}
{"smiles": "CC[C@H](C)[C@@H]1NC(=O)[C@@H]2CCCN2C(=O)[C@H]([C@@H](C)CC)NC(=O)[C@H](CO)NC(=O)[C@@H]2CCCN2C(=O)[C@H](Cc2ccccc2)NC(=O)[C@H](CCCNC(=N)N)NC(=O)[C@@H]2CSSC[C@@H](C(=O)N[C@@H](CCCNC(=N)N)C(=O)N[C@@H](CCCNC(=N)N)C(=O)N[C@H](C(=O)N[C@@H](Cc3c[nH]c4ccccc34)C(=O)O)C(C)C)NC(=O)[C@@H]3CSSC[C@H](NC(=O)[C@H](CC(C)C)NC(=O)CNC(=O)[C@H](Cc4ccccc4)NC(=O)[C@@H](N)CO)C(=O)N[C@@H](CCCNC(=N)N)C(=O)N[C@@H](CC(C)C)C(=O)N[C@@H](CCCNC(=N)N)C(=O)N[C@@H](CCCNC(=N)N)C(=O)NCC(=O)N[C@@H](Cc4ccccc4)C(=O)N[C@@H](CSSC[C@H](NC(=O)[C@H](CCCNC(=N)N)NC(=O)CNC1=O)C(=O)N[C@@H](CO)C(=O)N[C@@H](CCCNC(=N)N)C(=O)N[C@@H](Cc1ccccc1)C(=O)N[C@@H](C(C)C)C(=O)N[C@@H](CCC(N)=O)C(=O)N3)C(=O)N[C@@H](C)C(=O)N[C@@H](CCCNC(=N)N)C(=O)NCC(=O)N[C@@H](CCCNC(=N)N)C(=O)N2", "note": "[spheniscin-2] (HELM PEPTIDE1{S.F.G.L.C.R.L.R.R.G.F.C.A.R.G.R.C.R.F.P.S.I.P.I.G.R.C.S.R.F.V.Q.C.C.R.R.V.W}$PEPTIDE1,PEPTIDE1,5:R3-33:R3|PEPTIDE1,PEPTIDE1,12:R3-27:R3|PEPTIDE1,PEPTIDE1,17:R3-34:R3$$$V2.0; N-terminus and C-terminus assumed)", "values": [{"measurement": "MIC", "setting": "[1]", "value": "6 to 12", "unit": "µM"}, {"measurement": "MIC", "setting": "Nocardia asteroides", "value": "0.8 to 1.5", "unit": "µM"}, {"measurement": "MIC", "setting": "C. tropicalis", "value": "1.5 to 3", "unit": "µM"}, {"measurement": "MIC", "setting": "Candida glabrata", "value": ">100", "unit": "µM"}, {"measurement": "Bactericidal effect of spheniscin-2", "setting": "B. cereus ATCC 11778 [2]", "value": "Yes"}, {"measurement": "Bactericidal effect of spheniscin-2", "setting": "E. coli 1106 [3]", "value": "Yes"}, {"measurement": "MIC", "setting": "S. saprophyticus [4]", "value": "1.5 to 3", "unit": "µM"}, {"measurement": "MIC", "setting": "Aspergillus fumigatus [5]", "value": "3 to 6", "unit": "µM"}, {"measurement": "MIC", "setting": "Neurospora crassa", "value": "3 to 6", "unit": "µM"}, {"measurement": "Bactericidal effect of spheniscin-2", "setting": "S. saprophyticus [6]", "value": "No"}, {"measurement": "MIC", "setting": "[7]", "value": "25 to 50", "unit": "µM"}, {"measurement": "MIC", "setting": "[8]", "value": "25 to 50", "unit": "µM"}, {"measurement": "MIC (μM) after 48 h of incubation", "setting": "Escherichia coli 1106; pH 4.2", "value": "6 to 12", "unit": "µM"}, {"measurement": "MIC (μM) after 48 h of incubation", "setting": "Escherichia coli 1106; pH 5.2", "value": "25 to 50", "unit": "µM"}, {"measurement": "MIC (μM) after 48 h of incubation", "setting": "Escherichia coli 1106; pH 6.1", "value": "6 to 12", "unit": "µM"}, {"measurement": "MIC (μM) after 48 h of incubation", "setting": "Escherichia coli 1106; pH 7.2", "value": "1.5 to 3", "unit": "µM"}, {"measurement": "MIC (μM) after 48 h of incubation", "setting": "Pseudomonas aeruginosa; pH 4.2", "value": ">100", "unit": "µM"}, {"measurement": "MIC (μM) after 48 h of incubation", "setting": "Pseudomonas aeruginosa; pH 7.2", "value": "6 to 12", "unit": "µM"}, {"measurement": "Effect on the growth of Aspergillus fumigatus (FIG. 9B)", "setting": "Aspergillus fumigatus [9]", "value": "disappearance of the aspergillar heads"}, {"measurement": "MIC", "setting": "E. coli 1106 [10]", "value": "1.5 to 3", "unit": "µM"}, {"measurement": "MIC", "setting": "B. cereus ATCC 11778 [11]", "value": "3 to 6", "unit": "µM"}, {"measurement": "MIC", "setting": "C. albicans IHEM 8060", "value": "50 to 100", "unit": "µM"}]}
